Results published in article PMC10175918 (Communications Biology, 2023).
Read-outs that look alike come from different tables or passages of the source.

Tests used:
Assay in all cases: TGFα-shedding assay-based GPCR screening with chimeric Gα subunit proteins
Assay type in all cases: cell-based
[1] = target: T1, 348 GPCRs (Homo sapiens, UniProt O43613); details: 10µM, Favipiravir 100μM
T1 construct: expressed in transfected cells; host or cells: HEK293A
T1 sequence (O43613 1-425): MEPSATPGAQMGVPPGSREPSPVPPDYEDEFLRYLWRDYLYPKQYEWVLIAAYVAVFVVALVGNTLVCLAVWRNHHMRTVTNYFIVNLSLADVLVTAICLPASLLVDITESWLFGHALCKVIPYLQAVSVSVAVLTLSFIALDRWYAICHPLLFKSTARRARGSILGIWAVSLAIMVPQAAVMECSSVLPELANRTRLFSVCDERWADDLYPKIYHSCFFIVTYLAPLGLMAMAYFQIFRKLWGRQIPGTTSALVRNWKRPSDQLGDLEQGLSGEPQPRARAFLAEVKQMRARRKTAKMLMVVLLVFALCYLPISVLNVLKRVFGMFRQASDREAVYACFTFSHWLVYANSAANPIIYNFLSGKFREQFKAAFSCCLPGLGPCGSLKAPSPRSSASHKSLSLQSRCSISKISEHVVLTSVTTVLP

[2] = target: T2, 348 GPCRs (Homo sapiens, UniProt O95136); details: 10µM, Favipiravir 100μM
T2 construct: expressed in transfected cells; host or cells: HEK293A

[3] = target: T3, 348 GPCRs (Homo sapiens, UniProt P21731); details: 10µM, Favipiravir 100μM
T3 construct: expressed in transfected cells; host or cells: HEK293A
T3 sequence (P21731 1-343): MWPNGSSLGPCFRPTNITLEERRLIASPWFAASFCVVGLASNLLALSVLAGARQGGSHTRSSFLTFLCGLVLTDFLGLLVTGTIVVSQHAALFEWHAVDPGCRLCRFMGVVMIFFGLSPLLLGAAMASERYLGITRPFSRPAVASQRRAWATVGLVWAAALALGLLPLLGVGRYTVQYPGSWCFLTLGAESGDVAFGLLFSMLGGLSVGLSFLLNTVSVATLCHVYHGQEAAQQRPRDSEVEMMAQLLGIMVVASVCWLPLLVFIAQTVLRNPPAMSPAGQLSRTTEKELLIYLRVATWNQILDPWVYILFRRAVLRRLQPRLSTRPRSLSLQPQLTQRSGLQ

[4] = target: T4, 348 GPCRs (Homo sapiens, UniProt P51684); details: 10µM, Favipiravir 100μM
T4 construct: expressed in transfected cells; host or cells: HEK293A
T4 sequence (P51684 1-374): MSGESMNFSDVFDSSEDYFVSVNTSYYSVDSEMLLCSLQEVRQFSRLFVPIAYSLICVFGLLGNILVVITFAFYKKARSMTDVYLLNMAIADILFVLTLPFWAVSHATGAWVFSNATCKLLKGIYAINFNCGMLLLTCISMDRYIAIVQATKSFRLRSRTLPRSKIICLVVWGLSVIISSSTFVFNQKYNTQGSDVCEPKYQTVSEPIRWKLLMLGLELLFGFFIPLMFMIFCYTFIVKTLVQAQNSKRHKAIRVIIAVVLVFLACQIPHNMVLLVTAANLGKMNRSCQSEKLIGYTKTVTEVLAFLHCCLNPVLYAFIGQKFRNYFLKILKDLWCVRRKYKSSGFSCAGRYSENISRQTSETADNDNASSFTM

[5] = target: T5, 348 GPCRs (Homo sapiens, UniProt Q8IZF5)
T5 construct: expressed in transfected cells; host or cells: HEK293A
T5 sequence (Q8IZF5 26-1079): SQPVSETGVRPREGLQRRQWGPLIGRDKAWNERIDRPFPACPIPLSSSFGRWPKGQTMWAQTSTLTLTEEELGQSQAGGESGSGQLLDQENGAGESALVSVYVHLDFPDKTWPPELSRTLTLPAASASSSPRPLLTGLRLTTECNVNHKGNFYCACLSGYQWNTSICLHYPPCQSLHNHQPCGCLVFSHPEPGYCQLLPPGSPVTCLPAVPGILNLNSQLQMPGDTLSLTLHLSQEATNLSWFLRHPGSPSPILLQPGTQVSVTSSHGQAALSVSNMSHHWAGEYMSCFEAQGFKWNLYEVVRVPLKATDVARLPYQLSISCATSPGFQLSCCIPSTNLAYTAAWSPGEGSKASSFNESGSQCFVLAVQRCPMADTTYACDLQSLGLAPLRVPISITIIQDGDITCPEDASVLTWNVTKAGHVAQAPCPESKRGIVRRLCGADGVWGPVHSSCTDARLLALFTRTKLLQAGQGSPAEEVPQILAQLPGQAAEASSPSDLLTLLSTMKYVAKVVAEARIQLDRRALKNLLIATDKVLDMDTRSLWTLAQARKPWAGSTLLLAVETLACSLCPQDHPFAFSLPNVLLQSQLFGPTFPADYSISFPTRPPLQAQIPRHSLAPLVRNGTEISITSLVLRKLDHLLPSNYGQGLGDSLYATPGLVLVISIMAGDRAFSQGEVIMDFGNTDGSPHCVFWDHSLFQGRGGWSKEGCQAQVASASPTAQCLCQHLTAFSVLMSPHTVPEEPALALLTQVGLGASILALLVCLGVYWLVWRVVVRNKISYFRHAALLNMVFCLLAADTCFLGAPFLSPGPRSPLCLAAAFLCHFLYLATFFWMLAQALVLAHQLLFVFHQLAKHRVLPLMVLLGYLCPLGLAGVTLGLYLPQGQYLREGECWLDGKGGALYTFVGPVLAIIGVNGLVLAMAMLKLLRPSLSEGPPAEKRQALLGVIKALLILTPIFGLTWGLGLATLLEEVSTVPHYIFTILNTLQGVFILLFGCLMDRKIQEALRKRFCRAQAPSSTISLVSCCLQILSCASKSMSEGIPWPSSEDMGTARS

[6] = target: 348 GPCRs (Homo sapiens, UniProt Q96LA9); details: 10µM, Favipiravir 100μM
[7] = HCRTR1 (hypocretin (orexin) receptor 1), read-out: % GPCR activation compared to TPA
[8] = S1PR2 (sphingosine-1-phosphate receptor 2), read-out: % GPCR activation compared to TPA
[9] = TBXA2R (thromboxane A2 receptor), read-out: % GPCR activation compared to TPA
[10] = CCR6 (C-C motif chemokine receptor 6), read-out: % GPCR activation compared to TPA
[11] = GPCR GPR113 (G-protein-coupled receptor 113 (ADGRF3)), read-out: % GPCR activation compared to TPA
[12] = MRGPRX4 (MAS-related GPR, member X4), read-out: % GPCR activation compared to TPA
[13] = MRGX4 (MAS-related GPR, member X4), read-out: % GPCR activation compared to TPA
[14] = read-out: % GPCR activation compared to TPA, HCRTR1 (hypocretin (orexin) receptor 1)
[15] = read-out: % GPCR activation compared to TPA, S1PR2 (sphingosine-1-phosphate receptor 2)
[16] = read-out: % GPCR activation compared to TPA, TBXA2R (thromboxane A2 receptor)
[17] = read-out: % GPCR activation compared to TPA, CCR6 (C-C motif chemokine receptor 6)
[18] = read-out: % GPCR activation compared to TPA, GPCR GPR113 (G-protein-coupled receptor 113 (ADGRF3))
[19] = read-out: % GPCR activation compared to TPA, MRGPRX4 (MAS-related GPR, member X4)
[20] = read-out: % GPCR activation compared to TPA, MRGX4 (MAS-related GPR, member X4)

T2 sequence (O95136 whole entry): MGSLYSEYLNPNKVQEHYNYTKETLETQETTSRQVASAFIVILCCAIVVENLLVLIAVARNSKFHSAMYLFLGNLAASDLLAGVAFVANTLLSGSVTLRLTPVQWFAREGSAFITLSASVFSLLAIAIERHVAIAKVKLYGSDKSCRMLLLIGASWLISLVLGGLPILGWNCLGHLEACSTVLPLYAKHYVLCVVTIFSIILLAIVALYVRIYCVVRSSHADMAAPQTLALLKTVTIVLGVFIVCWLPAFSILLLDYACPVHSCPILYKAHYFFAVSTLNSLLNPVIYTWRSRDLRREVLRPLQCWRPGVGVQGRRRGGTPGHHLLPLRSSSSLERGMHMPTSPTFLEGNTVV
Chain of 348 GPCRs (Homo sapiens, UniProt Q96LA9) (Q96LA9 whole entry): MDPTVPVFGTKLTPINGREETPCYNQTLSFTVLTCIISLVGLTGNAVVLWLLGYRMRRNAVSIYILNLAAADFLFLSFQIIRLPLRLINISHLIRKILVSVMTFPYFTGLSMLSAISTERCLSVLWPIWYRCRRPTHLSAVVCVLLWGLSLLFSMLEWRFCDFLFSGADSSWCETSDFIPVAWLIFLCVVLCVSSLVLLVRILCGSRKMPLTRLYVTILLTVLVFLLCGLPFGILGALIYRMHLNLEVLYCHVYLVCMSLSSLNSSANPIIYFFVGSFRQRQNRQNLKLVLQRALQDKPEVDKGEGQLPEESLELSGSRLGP

Row | SMILES | activation at 100 µM [1, 7] [%] | activation at 10 µM [2, 8] [%] | activation at 10 µM [3, 9] [%] | activation at 10 µM [4, 10] [%] | activation at 10 µM [5, 11] [%] | activation at 100 µM [6, 12] [%] | activation at 100 µM [6, 13] [%] | activation at 100 µM ([5]; GPCR GPR113 (G-protein-coupled receptor 113 (ADGRF3)), 100μM, read-out: % GPCR activation compared to TPA) [%] | activation at 100 µM [1, 14] [%] | activation at 10 µM [2, 15] [%] | activation at 10 µM [3, 16] [%] | activation at 10 µM [4, 17] [%] | activation at 10 µM [5, 18] [%] | activation at 100 µM [6, 19] [%] | activation at 100 µM [6, 20] [%]
1 | NC(=O)c1nc(F)cnc1O [favipiravir, 6-fluoro-3-hydroxy-2-pyrazinecarboxamide] | 12.9 | -1.8 | -0.974 | 0.146 | – | -1.47 | -11.1 | -1.12 | – | – | – | – | – | – | –
2 | CCC(CC)COC(=O)[C@H](C)N[P@](=O)(OC[C@H]1O[C@@](C#N)(c2ccc3c(N)ncnn23)[C@H](O)[C@@H]1O)Oc1ccccc1 [remdesivir] | – | – | – | – | – | – | – | – | 16.7 | -3.06 | -0.881 | 2.34 | 0.66 | -0.071 | -1.24
3 | CC(C)OC(=O)[C@H](C)N[P@](=O)(OC[C@H]1O[C@@H](n2ccc(=O)[nH]c2=O)[C@](C)(F)[C@@H]1O)Oc1ccccc1 [sofosbuvir] | – | – | – | – | – | – | – | – | -0.162 | 0.199 | 0.249 | -3.43 | 0.111 | -0.776 | -14.4

Continued, in another order:

Row | activation at 100 µM [1, 7] [%] | activation at 10 µM [2, 8] [%] | activation at 10 µM [3, 9] [%] | activation at 10 µM [4, 10] [%] | activation at 10 µM [5, 11] [%] | activation at 100 µM [6, 12] [%] | activation at 100 µM [6, 13] [%] | activation at 100 µM ([5]; GPCR GPR113 (G-protein-coupled receptor 113 (ADGRF3)), 100μM, read-out: % GPCR activation compared to TPA) [%] | SMILES | activation at 100 µM [1, 14] [%] | activation at 10 µM [2, 15] [%] | activation at 10 µM [3, 16] [%] | activation at 10 µM [4, 17] [%] | activation at 10 µM [5, 18] [%] | activation at 100 µM [6, 19] [%] | activation at 100 µM [6, 20] [%]
4 | 16.9 | -1.37 | -0.528 | 0.67 | -1.08 | -1.84 | 0.701 | – | N#C[C@@]1(c2ccc3c(N)ncnn23)O[C@H](CO)[C@@H](O)[C@H]1O [GS441524] | – | – | – | – | – | – | –
5 | 1.7 | -2.13 | -1.16 | -2.53 | -1.49 | -2.9 | -28.1 | – | CC(C)C(=O)OC[C@H]1O[C@@H](n2ccc(NO)nc2=O)[C@H](O)[C@@H]1O [molnupiravir] | – | – | – | – | – | – | –
